Experimental data as given in US9586993B2, “CD44v6-derived peptides for treating pancreatic cancer” (AMCURE GMBH, priority 2012, dated 2017).

Tested on: L3.6p1 pancreatic carcinoma cells
Test: Human orthotopic model, L3.6p1 cells in the pancreas of nude mice
Format: in vivo, mouse
Conditions: for outgrowth / size of the primary tumor: 20 μg per injection i.p. three times per week for three weeks
Protocol: In the case of the human orthotopic model, L3.6p1 pancreatic carcinoma cells (passage 24-26) were suspended in Hank's balanced salt solution (Invitrogen, Karlsruhe, Germany) after trypsinization. The cells were injected orthotopically in the pancreas of male nude mice as described (Bruns C J et al. (1999) Neoplasia 1(1):50-62). Two groups of 15 mice each were injected i.p. 7 days later with either the human v6 peptide respectively rat control peptide (20 μg). For all experiments described and depicted herein either the rat 14mer control peptide or the human 14mer peptide were used. All experiments were then repeated with the rat 5mer control peptide or the human 5mer peptide (N-R-W-H-E, SEQ ID NO: 2). […] The injection was repeated three times per week for 21 days. Two days after the last treatment the animals were killed.
7 μm thick paraffin sections were deparaffinized and rehydrated. For P-Met staining antigen unmasking was achieved by boiling the slides in 1 mM EDTA pH 8.0 followed by incubation for 15 minutes at a sub-boiling temperature, for CD31 staining the sections were treated with Proteinase K (8 μg/ml) for 10 min at 37° C. For immunofluorescence staining of P-Met, unspecific binding was blocked with 5% goat serum (DAKO, Glostrup, Denmark) (diluted in 1×PBS/0.3% Triton X-100) for 60 minutes. In the case of immunohistochemistry, endogenous peroxidases were at first blocked with 3% H2O2 in PBS followed by incubation with biotin blocking system (Dako, Glostrup, Denmark) and then unspecific binding was inhibited by incubation with 5% FCS in PBS. The sections were incubated with the P-Met antibody (D26, dilution 1:50 in 1×PBS/1% BSA/0.3% Triton X-100), Met antibody (C-28, dilution 1:50), GFP antibody (sc-101525, dilution 1:50) or antibody (5 μg/ml) over night or VFF18 (5 μg/ml) o/n at 4° C. After washing in PBS the sections were incubated with Alexa Fluor R 546 goat anti-rabbit (in case of immunofluorescence P-Met and Met staining, dilution 1:500) or a biotinylated secondary antibody (for immunohistochemical stainings rabbit anti-rat antibody for VFF18 and CD31, goat anti-rabbit for P-Met, cleaved Caspase-3 and cleaved Caspase-8 and rabbit anti-mouse for GFP, dilution 1:500) for 45 minutes. For DAB (3,3′-diaminobenzidine) staining the sections were treated with a streptavidin-peroxidase conjugate (Dako, Glostrup, Denmark) and developed with DAB substrate system (3,3′-diaminobenzidine; Biozol, Eching, Germany) For immunofluorescence DAPI was used for nuclear staining.
The three CD44v6 specific compounds (v6 5mer, PEG840-v6 5mer and PEG2000-v6 5mer of human origin) and a control peptide were applied in three concentrations (2 μg, 20 μg, 200 μg per injection) three times per week i.p. for 4 weeks. One week before start of the treatment the L3.6p1 tumor cells were orthotopically implanted into nude mice.
Animals were implanted orthotopically with L3.6p1 cells. Tumor growth was allowed for one week before the treatment with the linear v6 14mer, the cyclic v6 8mer as well as the control peptide (rat v6 14mer) was started. All peptides were injected three times per week at a concentration of 0.2, 2 and 10 μg per injection for 3 weeks. At the end of the treatment animals were sacrificed.
A comparison of different CD44v6 peptide derivatives was performed in animals bearing a orthotopic L3.6p1 tumor. 10 groups of 5 animals each received a dose of 20 μg peptide per injection three times per week for 3 weeks with the compounds listed in Table 4. Three weeks after starting the treatment the animals were sacrificed and analyzed for macroscopic metastases and tumor volume.

In the case of “KEQWFGNRWHEGYR [human 14mer, human CD44v6 14mer peptide]”, the “metastasis formation (liver)” value (0.2 μg per injection three times per week for 3 weeks) is reported as “showed liver metastases but the average number of metastases per animal was reduced”, the “metastasis formation (liver)” value (2 μg per injection i.p. three times per week) is reported as “showed liver metastases but the average number of metastases per animal was reduced” and the “metastasis formation (liver)” value (10 μg per injection three times per week for 3 weeks) is reported as “complete inhibition of metastatic spreading”. For the same sequence, the “tumor angiogenesis (vessel number and vessel size, CD31 staining)” value (20 μg i.p. three times per week) was “decreased angiogenesis”, the “Met activation in the tumor (immunofluorescence for phospho-Met and Met)” value (20 μg i.p. three times per week for three weeks) was “completely repressed Met activation” and the “outgrowth / size of the primary tumor” value (start one week after implantation, listed as CD44v6 14mer) was “significant reduction in tumor growth”. For the same sequence, the “outgrowth / size of the primary tumor” value (start one week after implantation, listed as human v6 peptide) was “strongly repressed”, the “outgrowth / size of the primary tumor” value (start one week after implantation, listed as v6 14mer) was “strongest reduction of tumor size” and the “metastasis formation (liver)” value (20 μg per injection i.p. three times per week, start one week after implantation) was “complete inhibition of metastasis”. For the same sequence, the “metastasis formation (liver)” value (20 μg per injection i.p. three times per week, start one week after implantation, listed as human-specific peptide) was “completely inhibited metastasis formation within the liver”.
